For one assay, the target named is T1, Her2 (Homo sapiens, UniProt P04626).
T1 construct: fused on or other part: P00533 (Epidermal growth factor receptor)
As to the kind of experiment: HER-2 ELISA: EGF receptor-HER2 chimeric receptor assay in whole cells (HER2 kinase). The format is cell-based. To be noted: NIH3T3 cells with EGFR/HER2 chimeric receptor, phosphotyrosine ELISA. How it is done: Assay 1: EGF Receptor-HER2 Chimeric Receptor Assay In Whole Cells.
HER2 kinase activity in whole EGFR-NIH3T3 cells was measured as described below:
1. An NIH3T3 cell line overexpressing a chimeric receptor containing the EGFR extracellular domain and intracellular HER2 kinase domain can be used for this assay.
3. Resuspend cells in seeding medium (DMEM, 0.5% bovine serum), and count the cells using trypan blue. Viability above 90% is acceptable. Seed cells in DMEM medium (0.5% bovine serum) at a density of 10,000 cells per well, 100 μL per well, in a 96 well microtiter plate. Incubate seeded cells in 5% CO2 at 37° C. for about 40 hours.
1. Check seeded cells for contamination using an inverted microscope. Dilute drug stock (10 mg/mL in DMSO) 1:10 in DMEM medium, then transfer 5 μL to a TBST well for a final drug dilution of 1:200 and a final DMSO concentration of 1%. Control wells receive DMSO alone. Incubate in 5% CO2 at 37° C. for two hours.
2. Prepare EGF ligand: dilute stock EGF in DMEM so that upon transfer of 10 μL dilute EGF (1:12 dilution), 100 nM final concentration is attained.
4. After 120 minutes incubation with drug, add prepared […] ligand to cells, 10 μL per well, to a final concentration of 100 nM. Control wells receive DMEM alone. Incubate, shaking, at room temperature, for 5 minutes.
5. Remove drug, EGF, and DMEM. Wash cells twice with PBS. Transfer HNTG* to cells, 100 μL per well. Place on ice for 5 minutes. Meanwhile, remove blocking buffer from other ELISA plate and wash with TBST as described above.
6. With a pipette tip securely fitted to a micropipettor, scrape cells from plate and homogenize cell material by repeatedly aspirating and dispensing the HNTG* lysis buffer. Transfer lysate to a coated, blocked, and washed ELISA plate. Incubate shaking at room temperature for one hour.
7. Remove lysate and wash 4 times with TBST. Transfer freshly diluted anti-Ptyr antibody to ELISA plate at 100 μL per well. Incubate shaking at room temperature for 30 minutes in the presence of the anti-Ptyr antiserum (1:3000 dilution in TBST).
8. Remove the anti-Ptyr antibody and wash 4 times with TBST. Transfer the freshly diluted TAGO anti-rabbit IgG antibody to the ELISA plate at 100 μL per well. Incubate shaking at room temperature for 30 minutes (anti-rabbit IgG antibody: 1:3000 dilution in TBST).
9. Remove TAGO detection antibody and wash 4 times with TBST. Transfer freshly prepared ABTS/H2O2 solution to ELISA plate, 100 μL per well. Incubate shaking at room temperature for 20 minutes. (ABTS/H2O2 solution: 1.0 μL 30% H2O2 in 10 mL ABTS stock).
10. Stop reaction by adding 50 μL 5N H2SO4 (optional), and determine O.D. at 410 nm.
11. The maximal phosphotyrosine signal is determined by subtracting the value of the negative controls from the positive controls. The percent inhibition of phosphotyrosine content for extract-containing wells is then calculated, after subtraction of the negative controls.

The target of a further assay is PDGFR (Homo sapiens, UniProt P09619). As to the kind of experiment: Biochemical PDGFR assay (ELISA). Also noted: expressed in transfected cells; host or cells: NIH 3T3. Here is the method: This assay measures the in vitro kinase activity of PDGFR using ELISA.
Sequence of PDGFR (P09619 33-1106): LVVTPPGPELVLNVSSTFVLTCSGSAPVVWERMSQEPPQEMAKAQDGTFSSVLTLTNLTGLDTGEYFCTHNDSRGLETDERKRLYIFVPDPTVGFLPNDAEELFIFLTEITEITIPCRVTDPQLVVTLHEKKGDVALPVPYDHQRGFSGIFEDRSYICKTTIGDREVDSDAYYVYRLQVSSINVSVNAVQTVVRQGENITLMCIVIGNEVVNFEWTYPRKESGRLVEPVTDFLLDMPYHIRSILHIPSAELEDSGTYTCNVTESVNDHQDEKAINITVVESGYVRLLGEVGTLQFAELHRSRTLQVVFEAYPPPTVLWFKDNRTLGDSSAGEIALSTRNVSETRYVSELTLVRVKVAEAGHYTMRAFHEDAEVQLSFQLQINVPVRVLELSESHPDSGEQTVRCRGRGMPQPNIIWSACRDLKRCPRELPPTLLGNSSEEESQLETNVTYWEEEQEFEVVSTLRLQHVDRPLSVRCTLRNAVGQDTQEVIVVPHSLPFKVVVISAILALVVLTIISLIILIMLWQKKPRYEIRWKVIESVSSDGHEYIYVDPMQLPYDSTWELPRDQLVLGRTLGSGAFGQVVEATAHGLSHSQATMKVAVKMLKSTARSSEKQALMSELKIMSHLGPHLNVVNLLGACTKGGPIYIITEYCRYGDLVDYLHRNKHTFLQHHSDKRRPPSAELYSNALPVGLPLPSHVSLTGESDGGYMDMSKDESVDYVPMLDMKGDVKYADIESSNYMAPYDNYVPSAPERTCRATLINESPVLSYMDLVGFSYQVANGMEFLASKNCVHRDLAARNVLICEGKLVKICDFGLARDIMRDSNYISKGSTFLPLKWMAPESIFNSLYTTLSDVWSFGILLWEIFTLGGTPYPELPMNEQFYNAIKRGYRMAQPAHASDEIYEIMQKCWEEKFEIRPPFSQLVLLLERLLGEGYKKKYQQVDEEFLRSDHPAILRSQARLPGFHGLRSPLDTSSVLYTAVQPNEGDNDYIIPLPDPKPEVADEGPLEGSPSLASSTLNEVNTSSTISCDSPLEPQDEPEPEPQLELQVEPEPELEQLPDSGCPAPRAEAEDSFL
6. PDGFR-β expressing NlH 3T3 cell lysate.
1. Coat Corning 96 well ELISA plates with 0.5 μg 28D4C10 in 100 μL PBS per well, store overnight at 4° C.
5. Dilute lysate in HNTG (10 μg lysate/100 μL HNTG)
(§1) 6. Add 100 μL of diluted lysate to each well. Shake at room temperature for 60 min.
8. Add 80 μL working kinase buffer mix to ELISA plate containing captured PDGFR.
9. Dilute test compound 1:10 in TBS in 96-well polypropylene plates (i.e., 10 μL compound+90 μL TBS).
10. Add 10 μL diluted test compound to ELISA plate.
11. Incubate for 30 minutes while shaking at room temperature.
12. Add 10 μL ATP directly to all wells except negative control well (final well volume should be approximately 100 μL with 20 μM ATP in each well.) Incubate 30 minutes while shaking.
13. After 30 minutes, stop reaction by adding 10 μL of 200 mM EDTA (pH 8.0) to each well.
(§2) 15. Add 100 μL anti-phosphotyrosine (1:3000 dilution in TBST) per well. Incubate 30-45 min. at room temperature, with shaking.
(§3) 17. Add 100 μL Biosource Goat anti-rabbit IgG peroxidase conjugate (1:2000 dilution in TBST) to each well. Incubate 30 min. at room temperature, with shaking.
(§4) 19. Add 100 μL of ABTS/H2O2 solution to each well.
22. Read assay on Dynatech MR7000 ELISA reader: test filter: 410 nM, reference filter: 630 nM.
In general terms: ELISA stands for enzyme-linked immunosorbent assay.

The target of a further assay is EGFR (Homo sapiens, UniProt P00533). As to the kind of experiment: Biochemical EGFR assay (ELISA). Also noted: A431 cell lysate; endogenous in cells; host or cells: A431. Here is the method:
This assay measures the in vitro kinase activity of EGFR using ELISA.
1. Coat Coming 96 well ELISA plates with 0.5 μg SUMOl in 100 μL PBS per well, store overnight at 4° C.
5. Dilute lysate in PBS (7 μg lysate/100 μL PBS).
as §1
8. Add 120 μL TBS to ELISA plate containing captured EGFR.
9. Dilute test compound 1:10 in TBS in 96-well polypropylene plates (ie. 10 μL compound+90 μL TBS).
10. Add 13.5 μL diluted test compound to ELISA plate.
13. After 5 minutes, stop reaction by adding 16.5 μL of 200 mM EDTA (pH 8.0) to each well, shaking continuously. After the EDTA has been added, shake for 1 mm.
as §2, §3, §4
22. Read assay on Dynatech MR7000 ELISA reader. Test Filter: 410 nM Reference Filter: 630 Nm.

Setting [1] is: Table 5, in vitro kinase activity, read-out: PDGFr biochem IC50.
[2] abbreviates: Table 5, in vitro kinase activity, read-out: EGFr biochem IC50.
Where [3] appears, read: Table 4, in vitro kinase activity, read-out: bio PDGFr IC50.
[4] abbreviates: Table 4, in vitro kinase activity, read-out: bio EGFr IC50.
[5] abbreviates: Table 7, in vitro kinase activity, read-out: EGFr biochem IC50.

In general, IC50 refers to the concentration needed to halve the response being measured.

SMILES strings stand for the structures. Where two headings read alike, the source gives them in different places.

T1 sequence (P04626 676-1255 limits assumed): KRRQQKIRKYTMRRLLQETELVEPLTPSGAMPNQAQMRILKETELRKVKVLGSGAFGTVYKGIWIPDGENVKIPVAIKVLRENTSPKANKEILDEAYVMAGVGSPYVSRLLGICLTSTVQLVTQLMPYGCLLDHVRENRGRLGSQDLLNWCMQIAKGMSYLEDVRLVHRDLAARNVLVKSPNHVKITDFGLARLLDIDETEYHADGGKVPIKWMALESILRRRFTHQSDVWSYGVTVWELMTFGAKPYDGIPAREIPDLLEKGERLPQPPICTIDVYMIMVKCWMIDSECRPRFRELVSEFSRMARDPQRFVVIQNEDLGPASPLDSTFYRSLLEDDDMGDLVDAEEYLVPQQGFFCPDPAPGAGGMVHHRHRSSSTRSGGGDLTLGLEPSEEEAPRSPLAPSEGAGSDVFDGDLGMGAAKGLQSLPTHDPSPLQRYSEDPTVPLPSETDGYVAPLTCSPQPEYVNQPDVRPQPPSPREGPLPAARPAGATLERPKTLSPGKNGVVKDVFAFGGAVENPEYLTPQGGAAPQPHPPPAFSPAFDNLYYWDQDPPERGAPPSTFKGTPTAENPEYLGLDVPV
Sequence of EGFR (P00533 25-1210): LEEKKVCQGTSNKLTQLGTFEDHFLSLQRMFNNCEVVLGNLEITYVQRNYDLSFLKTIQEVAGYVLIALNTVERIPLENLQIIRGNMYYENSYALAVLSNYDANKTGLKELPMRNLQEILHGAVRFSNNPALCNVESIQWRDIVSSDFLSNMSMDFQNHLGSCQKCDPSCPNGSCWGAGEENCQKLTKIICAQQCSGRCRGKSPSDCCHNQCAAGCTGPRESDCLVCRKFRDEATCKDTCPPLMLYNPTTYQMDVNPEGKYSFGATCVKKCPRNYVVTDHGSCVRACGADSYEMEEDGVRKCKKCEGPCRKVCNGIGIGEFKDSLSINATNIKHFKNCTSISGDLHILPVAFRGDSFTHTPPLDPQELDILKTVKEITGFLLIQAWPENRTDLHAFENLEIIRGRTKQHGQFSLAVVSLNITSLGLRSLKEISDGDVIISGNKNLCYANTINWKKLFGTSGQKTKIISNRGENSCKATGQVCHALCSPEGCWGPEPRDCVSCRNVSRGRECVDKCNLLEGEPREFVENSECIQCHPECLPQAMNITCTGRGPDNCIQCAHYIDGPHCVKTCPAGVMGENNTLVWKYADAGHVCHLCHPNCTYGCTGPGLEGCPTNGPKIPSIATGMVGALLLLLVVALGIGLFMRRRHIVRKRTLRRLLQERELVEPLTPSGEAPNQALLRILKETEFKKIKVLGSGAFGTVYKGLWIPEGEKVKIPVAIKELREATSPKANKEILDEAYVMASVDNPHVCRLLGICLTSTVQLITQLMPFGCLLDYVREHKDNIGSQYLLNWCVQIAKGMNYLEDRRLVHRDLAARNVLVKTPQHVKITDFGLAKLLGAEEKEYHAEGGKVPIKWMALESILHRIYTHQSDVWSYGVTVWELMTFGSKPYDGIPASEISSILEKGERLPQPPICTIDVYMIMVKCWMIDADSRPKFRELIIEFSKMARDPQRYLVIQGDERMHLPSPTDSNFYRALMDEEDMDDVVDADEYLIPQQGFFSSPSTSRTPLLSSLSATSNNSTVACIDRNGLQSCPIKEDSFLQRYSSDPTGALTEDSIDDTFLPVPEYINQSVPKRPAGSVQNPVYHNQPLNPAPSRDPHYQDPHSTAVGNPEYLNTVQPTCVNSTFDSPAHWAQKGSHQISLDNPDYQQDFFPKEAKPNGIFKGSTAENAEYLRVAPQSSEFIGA

`CC(C)(C)c1cc(CC2C(=O)Nc3ccc(Cl)cc32)cc(Br)c1O` (racemic) [AAI-28, 3-(3-Bromo-5-tert-butyl-4-hydroxybenzyl)-5-chloro-1,3-dihydroindol-2-one]: the IC50 at Her2 (Table 5) was 48 µM; at PDGFR (setting [1]), over 100 µM; at EGFR (setting [2]) it was over 100 µM.
Turning to `COc1ccc2c(c1)NC(=O)C2Cc1ccc(OC)c(-c2ccsc2)c1` (stereo not drawn) [AAI-1, 6-Methoxy-3-(4-methoxy-3-thiophen-3-ylbenzyl)-1,3-dihydroindol-2-one], the IC50 at Her2 (Table 5), at PDGFR (setting [1]) and on EGFR (setting [2]) was over 100 µM each time.
Turning to `O=C(Nc1ccc2c(c1)NC(=O)C2Cc1cc(Cl)cc(Cl)c1O)C1CCCC1` (stereo not drawn) [AAI-2, Cyclopentanecarboxylic Acid [3-(3,5-Dichloro-2-hydroxybenzyl)-2-oxo-2,3-dihydro-1H-indol-6-yl]-amide], the IC50 on Her2 (Table 5) was 50.5 µM; on PDGFR (setting [1]), over 100 µM; on EGFR (setting [2]) it was over 100 µM.
As for `O=C(Nc1ccc2c(c1)NC(=O)C2Cc1cc(Cl)ccc1O)C1CCCC1` (stereo not drawn) [AAI-3, Cyclopentanecarboxylic Acid [3-(5-Chloro-2-hydroxybenzyl)-2-oxo-2,3-dihydro-1H-indol-6-yl]-amide], the IC50 against Her2 (Table 5), on PDGFR (setting [1]) and at EGFR (setting [2]) was over 100 µM each time.
For `COc1ccc(-c2cc(CC3C(=O)Nc4ccccc43)c(O)cc2OC)cc1` (stereo not drawn) [AAI-4, 3-(4-Hydroxy-6,4′-dimethoxybiphenyl-3-ylmethyl)-1,3-dihydroindol-2-one], the IC50 against Her2 (Table 5), on PDGFR (setting [1]) and on EGFR (setting [2]) was over 100 µM throughout.
On to `O=C1Nc2cccc(CCO)c2C1Cc1ccc(Br)cc1` (stereo not drawn) [AAI-14, 3-(4-Bromobenzyl)-4-(2-hydroxyethyl)-1,3-dihydroindol-2-one], for which the IC50 against Her2 (Table 5), at PDGFR (setting [1]) and on EGFR (setting [2]) was over 100 µM each time.
As to `CC(C)c1cc(CC2C(=O)Nc3ccc(Cl)cc32)cc(C(C)C)c1OCCN1CCOCC1` (stereo not drawn) [AAI-15, 5-Chloro-3-[3,5-diisopropyl-4-(2-morpholin-4-ylethoxy)-benzyl]-1,3-dihydroindol-2-one], the IC50 on Her2 (Table 5), at PDGFR (setting [1]) and at EGFR (setting [2]) was over 100 µM in each case.
On to `Cc1[nH]c(CC2C(=O)Nc3ccc(Br)cc32)c(C)c1CCCN(C)C` (stereo not drawn) [AAI-19, 5-Bromo-3-[4-(3-dimethylaminopropyl)-3,5-dimethyl-1H-pyrrol-2-ylmethyl]-1,3-dihydroindol-2-one], for which the IC50 was over 100 µM on Her2 (Table 5), 0.25 µM on PDGFR (setting [1]) and over 100 µM on EGFR (setting [2]).
As to `O=C1Nc2cc(-c3ccccc3)ccc2C1Cc1cc(Br)ccc1O` (stereo not drawn) [AAI-26, 3-(5-Bromo-2-hydroxybenzyl)-6-phenyl-1,3-dihydroindol-2-one], the figures for the IC50 at Her2 (Table 5), on PDGFR (setting [1]) and at EGFR (setting [2]) were 67.6 µM, over 100 µM and over 100 µM, respectively.
`COc1ccc(C=C2C(=O)Nc3cc(-c4cccnc4)ccc32)cc1-c1cccs1` [AHI-1, 3-(4-Methoxy-3-thiophen-2-yl-benzylidene)-6-pyridin-3-yl-1,3-dihydroindol-2-one]: the IC50 on Her2 (Table 4), on PDGFR (setting [3]) and on EGFR (setting [4]) was over 100 µM in each case.
Turning to `O=C1Nc2cc(-c3cccnc3)ccc2C1=Cc1ccccc1O` [AHI-2, 3-(2-Hydroxybenzylidene)-6-pyridin-3-yl-1,3-dihydroindol-2-one], the IC50 was 31.5 µM against Her2 (Table 4), 49.9 µM at PDGFR (setting [3]) and over 100 µM on EGFR (setting [4]).
On the same counts, the results for `COc1ccc(C=C2C(=O)Nc3cc(-c4cccs4)ccc32)cc1-c1cccs1` [AHI-3, 3-(4-Methoxy-3-thiophen-2-yl-benzylidene)-6-thiophen-2-yl-1,3-dihydroindol-2-one] are over 100 µM, over 100 µM and over 100 µM.
On the same counts, the results for `O=C1Nc2cc(-c3cccs3)ccc2C1=Cc1ccccc1O` [AHI-4, 3-(2-Hydroxybenzylidene)-6-thiophen-2-yl-1,3-dihydroindol-2-one] are over 100 µM, over 100 µM and over 100 µM.
The matching figures for `COc1ccc(C=C2C(=O)Nc3cc(-c4ccsc4)ccc32)cc1-c1cccs1` [AHI-5, 3-(4-Methoxy-3-thiophen-2-yl-benzylidene)-6-thiophen-3-yl-1,3-dihydroindol-2-one]: over 100 µM, over 100 µM and over 100 µM.
`O=C1Nc2cc(-c3ccsc3)ccc2C1=Cc1ccccc1O` [AHI-6, 3-(2-Hydroxybenzylidene)-6-thiophen-3-yl-1,3-dihydroindol-2-one]: the IC50 was 57.3 µM against Her2 (Table 4), 76.6 µM on PDGFR (setting [3]) and over 100 µM on EGFR (setting [4]).
On the same counts, the results for `Cc1[nH]c(C=C2C(=O)Nc3cc(-c4cccnc4)ccc32)c(C)c1CCCN(C)C` [AHI-7, 3-[4-(3-Dimethylaminopropyl)-3,5-dimethyl-1H-pyrrol-2-ylmethylene]-6-pyridin-3-yl-1,3-dihydroindol-2-one] are 16.8 µM, 0.02 µM and 12.1 µM.
On to `COCCc1cccc2c1CC(=O)N2` [IN-018, 4-(2-Methoxy-ethyl)-1,3-dihydro-indol-2-one], for which the IC50 on Her2 (Table 7) and on EGFR (setting [5]) was over 100 µM each time.
With `CCOCCc1cccc2c1CC(=O)N2` [IN-019, 4-(2-Ethoxy-ethyl)-1,3-dihydro-indol-2-one], the half-inhibitory concentration (IC50) at Her2 (Table 7) and on EGFR (setting [5]) was over 100 µM throughout.
For `O=C1Cc2c(CCOc3cncc(Cl)c3)cccc2N1` [IN-021, 4-[2-(5-Chloro-pyridin-3-yloxy)-ethyl]1,3-dihydro-indol-2-one], the IC50 against Her2 (Table 7) and on EGFR (setting [5]) was over 100 µM throughout.

Values taken from patent publication US6689806B1, “Indolinone compounds as kinase inhibitors” (Sugen, Inc., priority 1999, dated 2004).
